Data published in patent US11980645B2, “Bile acids and use in disease treatment” (The Regents of the University of California, priority 2019, dated 2024).

Experiments:
[1] = tested on: FXR effector genes Fgf15, Shp, Cyp7a1, Cyp8b1; assay: Bile acid gavage of mice, RT-qPCR of downstream FXR effector genes in ileum and liver; details: for Fgf15 expression in the intestine, increase / Shp expression in the intestine, increase: oral gavage 500 mg/kg in corn oil
Protocol: The gene expression of Fgf15 and Shp in the ileum and Shp, Cyp8b1 and Cyp7a1 in the liver of mice gavaged with bile acids of interest were analyzed using quantitative reverse transcriptase-PCR analysis. The expression levels were normalized to the cellular housekeeping gene ribosomal phosphoprotein PO (36B4).
Bile acid Gavage of Mice. Eight-week-old Male C57BL/6J mice (Jackson Laboratory) were acclimated for 14 days and housed in groups of two throughout the duration of the experiment to mitigate cage effects. Mice were then dosed 2 times (24 hour) or 4 times (72 hour) (t=0 hr, t=24 hr, t=48 hr, t=72 hr) by oral gavage with either a mock control of corn oil without bile acids, or corn oil infused Tyr-chol (500 mg/kg body weight), Leu-chol (500 mg/kg body weight), cholic acid (500 mg/kg body weight) or the control FXR agonist GW4064 (10 mg/kg body weight). Starting 3 hours after the last gavage (t=75 hr, 72 hour treatment or t=25, 24 hour treatment), mice were euthanized by CO2 asphyxiation and samples were collected within a 6 hour period and snap frozen in a liquid nitrogen bath and stored at −80° C. prior to analysis. […] Ileum and liver samples were used for qPCR.
RT-qPCR Analysis of Downstream FXR Gene Expression. Mouse liver and ileum segments were directly homogenized in TRIzol and total RNA isolated. cDNA was synthesized from 1 μg of DNase-treated total RNA using Bio-Rad iScript Reverse Transcription supermix (#1708841) and mRNA levels of Fgf15, Shp, Cyp7b1 and Cyp7a1 were quantified by quantitative PCR with Advanced Universal SyBr Green Supermix (Bio-Rad, cat #725271). All samples were run in technical triplicates and relative mRNA levels were calculated by using the standard curve methodology and normalized to 36B4.

[2] = LC-MS/MS screen of murine portal and peripheral blood for conjugated bile acids
Excerpt: Portal and peripheral blood was collected from additional SPF (n=4) and GF (n=6) mice and screened for the presence of conjugated bile acids.
Bile Acids in Murine Portal and Peripheral Blood. An additional 4 SPF and 6 GF female mice of the same strain analyzed for the initial study on the microbial metabolome were raised for analysis of blood. Portal blood and peripheral blood were sampled as described in the methods section and analyzed with the same LC-MS/MS protocols as the original animals.

[3] = tested on: human fecal batch culture; assay: Incubation with actively growing human fecal batch culture (metabolism by microbiota); format: in vitro ADME; details: 10 μM bile acid, 24 h
Excerpt: FIGS. […]. Distribution and metabolism of novel conjugated bile acids. FIG. 9a) Molecular network of SPF duodenum MS/MS data and synthesized amino acid conjugated bile acids. LC-MS/MS data from synthetic standards was networked with murine samples and spectral matching through molecular networking is indicated by node greyscale. Mirror plots showing the alignment between the murine and standards are shown. Nodes shaped as arrowheads had hits in the GNPS libraries and node size is scaled to the spectral count. Tauro=Taurocholic acid. These experiments were repeated twice. FIG. 9b) 3D-molecular cartography of the mean abundance of the newly discovered conjugates mapped onto a 3D-rendered model of the murine GI tract as a heatmap according to the greyscale. Organs are labeled as described in FIG. 1. FIG. 9c) Molecular network of GF and SPF portal and peripheral blood conjugated bile acids. Nodes are colored by source as either GF and SPF or portal/peripheral blood. Arrowhead nodes represent known compounds in the GNPS spectral database, circular nodes represent unknowns. The annotations are through spectral matches against reference libraries (level 2 or 3^3). FIG. 9d) Mean area under curve abundance and standard deviations of bile acids of interest during incubation with an actively growing batch human fecal culture for 24 h (n=3). FIG. 9e) Molecular network of novel conjugated bile acids after incubation in a human fecal batch culture experiment. Each node represents a unique MS/MS spectrum and arrowhead shaped nodes indicate known spectra in the GNPS database. The nodes are greyscale by their retention time according to the legend and the mass shift between nodes are mapped onto the edge representing the cosine connection between related spectra. The H2 mass shift representing oxidation of the novel conjugates is shown. FIG. 9f) Mean ion intensity and standard deviations of the dehydrogenated forms of Phe-chol, Tyr-chol and Leu-chol through the 24 h batch fecal culture incubation (n=3).
Fecal Culture Bioreactor Inoculation. A 4 g stool sample was resuspended in 40 mL modified yeast casitone fatty acids media (mYCFA, DMSZ recipe) with 0.25% Antifoam B Silicon Emulsion (Baker) in a vinyl anaerobic chamber (Coy). The resuspension was centrifuged at 500× g for 5 minutes to pellet solids. The supernatant was decanted through a sterile […] filter. The filtrate was centrifuged at 4450× g for 10 minutes to pellet cells. The supernatant was discarded, and the pellet was resuspended in 40 mL mYCFA. The resuspension was drawn into a 60 mL syringe and injected into a 500 mL vessel of an Infors Multifors 2 bioreactor. The chemostat process parameters was modified from a previous process developed in^26. The chemostat volume parameters were; 400 mL culture volume, 24-hour retention rate, 50 mL/min nitrogen, stirrer at 250 rpm, and 37° C. temperature. […] 15 μL stocks were added to 12 mL mYCFA. After 11 days of continuous culturing, 24 mL bioreactor culture was withdrawn and transferred to the anaerobic chamber. 3 mL culture was added to the 12 mL mYCFA aliquots with the bile acids, for a total volume of 15 mL and final concentration of 10 μM bile acid. The cultures were vortexed and split into three 5 mL aliquots. At time 0 (blanks for each bile acid), 1, 3, 6, 12 and 24 hours, 0.1 mL aliquots were removed from the samples for metabolomics and 16S rRNA gene sequencing. […]

human FXR = biological target: T1, human FXR (Homo sapiens, UniProt Q96RI1); assay: FXR luciferase reporter assay in HEK-293 cells; details: for human FXR agonism: HEK-293 luciferase reporter
T1 sequence (Q96RI1 1-486): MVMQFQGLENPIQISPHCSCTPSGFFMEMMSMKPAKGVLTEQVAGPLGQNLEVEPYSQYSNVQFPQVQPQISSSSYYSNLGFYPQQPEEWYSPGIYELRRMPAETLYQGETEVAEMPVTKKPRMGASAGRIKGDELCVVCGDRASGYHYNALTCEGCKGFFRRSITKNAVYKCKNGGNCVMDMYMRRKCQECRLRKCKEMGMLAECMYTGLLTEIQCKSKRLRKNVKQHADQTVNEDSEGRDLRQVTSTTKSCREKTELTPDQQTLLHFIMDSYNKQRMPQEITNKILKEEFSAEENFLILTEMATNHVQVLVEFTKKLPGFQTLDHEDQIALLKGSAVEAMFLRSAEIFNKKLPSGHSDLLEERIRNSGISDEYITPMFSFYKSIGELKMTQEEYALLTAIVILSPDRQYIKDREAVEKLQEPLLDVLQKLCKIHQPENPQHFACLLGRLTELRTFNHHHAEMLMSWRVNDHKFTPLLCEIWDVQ
T1 sequence (P19793 1-462 partner): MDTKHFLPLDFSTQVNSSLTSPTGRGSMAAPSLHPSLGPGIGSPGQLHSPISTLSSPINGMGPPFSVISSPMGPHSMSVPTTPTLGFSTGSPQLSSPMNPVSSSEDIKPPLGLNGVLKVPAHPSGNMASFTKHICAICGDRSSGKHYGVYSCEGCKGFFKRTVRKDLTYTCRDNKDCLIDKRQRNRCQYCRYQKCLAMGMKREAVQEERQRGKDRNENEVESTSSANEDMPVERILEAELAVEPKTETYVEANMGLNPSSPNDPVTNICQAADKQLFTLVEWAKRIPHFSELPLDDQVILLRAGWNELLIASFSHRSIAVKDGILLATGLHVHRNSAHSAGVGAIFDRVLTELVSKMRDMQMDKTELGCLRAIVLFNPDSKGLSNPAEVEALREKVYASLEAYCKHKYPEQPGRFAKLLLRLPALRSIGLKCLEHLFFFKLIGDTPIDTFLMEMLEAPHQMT
Protocol: To assess the ability of the novel bile acids from the invention to affect human FXR signaling, a luciferase reporter assay was established in HEK-293 embryonic kidney cells^39.
Human kidney cell line HeK-293 was obtained from American Type Culture Collection (ATCC CRL-1573, tested for Mycoplasma contamination every 6 months). These cells were chosen due to their high transfectability and low FXR expression which allows for a robust signal to noise ratio. These 293 cells were cultured in Dulbecco's modified Eagle's medium/F-12 (DMEM) supplemented with 10% (V/V heat-inactivated fetal calf serum (FBS) and 100 units/ml penicillin G and 100 μg/ml streptomycin. 10,000 cells were seeded per well in 96-well plates one day before transfection of plasmids. DNA was transiently transfected by Lipofectamine 2000 and Opti-MDM in fasting state. The ratio of plasmid used in per well were 50 ng of FXR response element (FXRE)/luciferase reporter plasmid, 10 ng of pCMV-3flag-FXR (human) plasmid, 10 ng of pCMV-RXR (human) plasmid, and 5 ng of Renilla luciferase reporter plasmid as internal standard for transfection efficiency. […] Cells were harvested 24 hrs later and lysed with passive lysis buffer (Promega). Luciferase activities were measured by the Dual-Luciferase Reporter (DLR™) Assay kit and read by Luminometer (Perkin Elmer). The final Luciferase activities were normalized by dividing the relative light units by Renilla luciferase activity. Statistical analyses were performed using Prism software. Each dosage was done in 12 replicates.

Row | Structure (SMILES) | deconjugation by the microbiota [3] | presence in portal and peripheral blood ([2]; mouse, in vivo) | liver Cyp7a1 expression vs corn oil control (significance) ([1]; gavage, 24 hrs) | liver Cyp8b1 expression vs corn oil control (significance) ([1]; gavage, 24 hrs) | ileum Fgf15 signaling vs corn oil control (significance) ([1]; gavage, 72 hrs) | ileum Shp signaling vs corn oil control (significance) ([1]; gavage, 72 hrs) | liver Cyp7a1 expression vs corn oil control (significance) ([1]; gavage, 72 hrs) | liver Cyp8b1 expression vs corn oil control (significance) ([1]; gavage, 72 hrs) | other results
1 | CC(C)c1onc(-c2c(Cl)cccc2Cl)c1COc1ccc(/C=C/c2cccc(C(=O)O)c2)c(Cl)c1 [GW4064, reference compound] | – | – | – | – | – | – | – | – | ileum Shp expression vs corn oil control (significance) ([1]; gavage, 24 hr): significance was also reached
2 | C[C@H](CCC(=O)NCCS(=O)(=O)O)[C@H]1CC[C@H]2[C@@H]3[C@H](O)C[C@@H]4C[C@H](O)CC[C@]4(C)[C@H]3C[C@H](O)[C@]12C [TCA, Taurocholic acid, reference compound] | – | – | – | – | – | – | – | – | presence in portal and peripheral blood ([2]; SPF (n=4) and GF (n=6) mice, endogenous): present
3 | CC(C)C[C@H](NC(=O)CC[C@@H](C)[C@H]1CC[C@H]2[C@@H]3[C@H](O)C[C@@H]4C[C@H](O)CC[C@]4(C)[C@H]3C[C@H](O)[C@]12C)C(=O)O [Leu-chol, leucocholic acid] | not deconjugated | not found | significantly reduced | significantly reduced | significantly increased | significantly increased | significantly reduced | significantly reduced | liver Shp expression vs corn oil control (significance) ([1]; gavage, 72 hrs): significantly elevated
4 | C[C@H](CCC(=O)N[C@@H](Cc1ccccc1)C(=O)O)[C@H]1CC[C@H]2[C@@H]3[C@H](O)C[C@@H]4C[C@H](O)CC[C@]4(C)[C@H]3C[C@H](O)[C@]12C [Phe-chol, phenylalanocholic acid] | not deconjugated | not found | – | – | – | – | – | – | EC50 (human FXR): 4500 nM; human FXR agonism (human FXR): strong human FXR agonists
5 | C[C@H](CCC(=O)O)[C@H]1CC[C@H]2[C@@H]3[C@H](O)C[C@@H]4C[C@H](O)CC[C@]4(C)[C@H]3C[C@H](O)[C@]12C [cholic acid, reference compound] | – | – | significantly reduced | significantly reduced | significantly increased | significantly increased | significantly reduced | significantly reduced | ileum Shp expression vs corn oil control (significance) ([1]; gavage, 24 hr): significance was also reached
6 | C[C@H](CCC(=O)NCC(=O)O)[C@H]1CC[C@H]2[C@@H]3[C@H](O)C[C@@H]4C[C@H](O)CC[C@]4(C)[C@H]3C[C@H](O)[C@]12C [GCA, glycocholic acid, reference compound] | deconjugation readily occurred | present | – | – | – | – | – | – | oxidation of the cholate core by microbial enzymes [3]: no concurrent oxidation
7 | C[C@H](CCC(=O)N[C@@H](Cc1ccc(O)cc1)C(=O)O)[C@H]1CC[C@H]2[C@@H]3[C@H](O)C[C@@H]4C[C@H](O)CC[C@]4(C)[C@H]3C[C@H](O)[C@]12C [Tyr-chol, tyrosocholic acid] | not deconjugated | not found | significantly reduced | significantly reduced | significantly increased | significantly increased | significantly reduced | significantly reduced | EC50 (human FXR): 140 nM; human FXR agonism (human FXR): strong human FXR agonists; ileum Fgf15 expression vs corn oil control (significance) ([1]; gavage, 24 hr): significantly elevated; Shp expression in the liver ([1]; gavage, 24 hrs): did not change detectably; liver Cyp7a1 expression ([1]; gavage, 24 hrs): 9 % of control; liver Cyp8b1 expression ([1]; gavage, 24 hrs): 69 % of control; Shp expression in the liver, increase ([1]; gavage, 72 hrs): 2.3 fold; liver Shp expression vs corn oil control (significance) ([1]; gavage, 72 hrs): significantly elevated; liver Cyp7a1 expression ([1]; gavage, 72 hrs (4 gavages)): 8 % of control; liver Cyp8b1 expression ([1]; gavage, 72 hrs (4 gavages)): 2 % of control; Fgf15 expression in the intestine, increase ([1]; 24 hrs): 12.2 fold; Shp expression in the intestine, increase ([1]; 24 hrs): 13.3 fold; Fgf15 expression in the intestine, increase ([1]; 72 hrs (4 gavages)): 6.2 fold; Shp expression in the intestine, increase ([1]; 72 hrs (4 gavages)): 9.3 fold
